Target: T1, HIV-1 protease (Human immunodeficiency virus type 1 group M subtype B, UniProt P04585)
T1 construct: The protease (or proteinase), consisting of only 99 amino acids, is among the smallest enzymes known
Test: In vitro HIV protease inhibitory assay (HIV Protease FITC Assay)
Type: biochemical
Conditions: for inhibition at 0.41 µM: HIV-1 Dose 0.410 uM; for inhibition at 1.23 µM: HIV-1 Dose 1.230 uM; for inhibition at 3.7 µM: HIV-1 Dose 3.700 uM; for inhibition at 11 µM: HIV-1 Dose 11.000 uM; for inhibition at 33 µM: HIV-1 Dose 33.000 uM; for inhibition at 100 µM: HIV-1 Dose 100.000 uM; for inhibition at 10 µM: HIV-1 Dose 10.000 uM; for Ki: read-out: HIV-1 FITC Ki; for inhibition at 1 µM: HIV-1 Dose 1.000 uM
Method: The HIV protease screening assay is based on a fluorescently labeled substrate which can be resolved from nonlabeled cleavage product using avidin-polystyrene particles, 0.7-0.9 µm. The substrate is biotinylated at the amino terminal arginine and fluorescently labeled with fluorescein isothiocynate (FITC) at the carboxyl terminal lysine. […] Substrate (20 µl of 0.2 µM), sample (10 µl of desired concentraion), and enzyme (10 µl of 0.1 µM) are added to a 96 well pandex plate. The assay is run in 0.1 M sodium acetate buffer at pH 5.5 in the presence of 1.0 M sodium chloride and 0.05% NP-40 and incubated in the dark for one hour at room temperature. Avidin coated polystyrene beads {40 µl of 0.1% (w/v)} are added and the incubation is continued in the dark for an additional half hour. The labeled cleavage product is separated from the unreacted substrate via filtration and is read on the Idexx Screen Machine. The data are analyzed by appropriate computer algorithms to ascertain percent inhibition values.

[1] = read-out: HIV-1 Protease % Inhib

| Compound | inhibition at 0.41 µM [1] [%] | inhibition at 1.23 µM [1] [%] | inhibition at 3.7 µM [1] [%] | inhibition at 11 µM [1] [%] | inhibition at 33 µM [1] [%] | inhibition at 100 µM [1] [%] | inhibition at 0.123 µM (HIV-1 Dose 0.123 uM, read-out: HIV-1 Protease % Inhib) [%] | inhibition at 0.37 µM (HIV-1 Dose 0.370 uM, read-out: HIV-1 Protease % Inhib) [%] | inhibition at 1.1 µM (HIV-1 Dose 1.100 uM, read-out: HIV-1 Protease % Inhib) [%] | inhibition at 3.3 µM (HIV-1 Dose 3.300 uM, read-out: HIV-1 Protease % Inhib) [%] | inhibition at 10 µM [1] [%] | inhibition at 30 µM (HIV-1 Dose 30.000 uM, read-out: HIV-1 Protease % Inhib) [%] | Ki [nM] | inhibition at 1 µM [1] [%] |
| --- | --- | --- | --- | --- | --- | --- | --- | --- | --- | --- | --- | --- | --- | --- |
| CCC(Cc1ccccc1)c1cc(O)c(C(c2cccc(NC(=O)OCc3ccccc3)c2)C2CC2)c(=O)o1 (stereo not drawn) [Example 36, 3-(α-Cyclopropyl-meta-(benzyloxycarbonylamino)benzyl)-6-(α-ethyl-phenethyl)-4-hydroxy-2H-pyran-2-one] | < 10 | 13.7 | 43.4 | 73.7 | 77.2 | 87.5 |  |  |  |  |  |  |  |  |
| O=C(CCn1ccc2ccccc21)Nc1cccc(C(c2c(O)cc(C(CC3CC3)CC3CC3)oc2=O)C2CC2)c1 (stereo not shown) [Example 39, N-(3-(Cyclopropyl-[6-(2-cyclopropyl-1-cyclopropylmethyl-ethyl)-4-hydroxy-2-oxo-2H-pyran-3-yl]-methyl)-phenyl)-3-indol-1-yl-propionamide] |  |  |  |  |  |  | < 10 | 24.8 | 60.6 | 86.3 | 91.8 | 94.5 | 96 |  |
| CCCC(CCC)c1cc(O)c(C(CC)c2ccccc2)c(=O)o1 (stereo not shown) [Example 40, 4-Hydroxy-3-(1-phenyl-propyl)-6-(1-propyl-butyl)-pyran-2-one] |  |  |  |  |  | 80 |  |  |  |  | 79.5 |  |  | 37.2 |
| C=CC(c1ccccc1)c1c(O)cc(C(CCC)CCC)oc1=O (stereo not shown) [Example 41, 4-Hydroxy-3-(1-phenyl-allyl)-6-(1-propyl-butyl)-pyran-2-one] |  |  |  |  |  | 80.9 |  |  |  |  | 65.9 |  |  | 21.2 |
| CC(C)(C)OC(=O)CCc1cc(O)c(C(c2ccccc2)C2CC2)c(=O)o1 (stereo not shown) [Example 42, 3-(5-(Cyclopropyl-phenyl-methyl)-4-hydroxy-6-oxo-6H-pyran-2-yl)-propionic acid tert-butyl ester] |  |  |  |  |  | 105 |  |  |  |  | 74.7 |  | 520 | 19.7 |
| Cc1noc(C)c1CCc1cc(O)c(C(c2ccccc2)C2CC2)c(=O)o1 (stereo not shown) [Example 43, 3-(Cyclopropyl-phenyl-methyl)-6-(2-(3,5-dimethyl-isoxazol-4-yl)-ethyl)-4-hydroxy-pyran-2-one] |  |  |  |  |  | 97.3 |  |  |  |  | 89.4 |  | 460 | 44.6 |
| CC(C)(C)c1nc(CCc2cc(O)c(C(c3ccccc3)C3CC3)c(=O)o2)no1 (stereo not shown) [Example 44, 6-(2-(5-Tert-butyl-(1,2,4)oxadiazol-3-yl)-ethyl)-3-(cyclopropyl-phenyl-methyl)-4-hydroxy-pyran-2-one] | < 10 | 24.9 | 57.3 | 84.3 | 106 | 114 |  |  |  |  |  |  | 1840 |  |
| CCC(CC1CCOC1)c1cc(O)c(C(c2ccccc2)C2CC2)c(=O)o1 (stereo not shown) [Example 45, 3-(Cyclopropyl-phenyl-methyl)-4-hydroxy-6-(1-(tetrahydro-furan-3-ylmethyl)-propyl)-pyran-2-one] | 79.3 | 94.4 | 101 | 103 | 114 | 116 |  |  |  |  |  |  | 53 |  |
| O=c1oc(C(Cc2ccccc2)Cc2ccccn2)cc(O)c1C(c1ccccc1)C1CC1 (stereo not shown) [Example 46, 3-(Cyclopropyl-phenyl-methyl)-4-hydroxy-6-(2-phenyl-1-pyridin-2-ylmethyl-ethyl)-pyran-2-one] | 29.2 | 65 | 91.6 | 94.2 | 103 | 115 |  |  |  |  |  |  | 313 |  |
| O=c1oc(CCC2OCCO2)cc(O)c1C(c1ccccc1)C1CC1 (stereo not shown) [Example 47, 3-(Cyclopropyl-phenyl-methyl)-6-(2-(1,3)dioxolan-2-yl-ethyl)-4-hydroxy-pyran-2-one] | < 10 | 19.4 | 50 | 73.2 | 91.3 | 107 |  |  |  |  |  |  | 505 |  |
| O=c1oc(CCCCN2CCOCC2)cc(O)c1C(c1ccccc1)C1CC1 (stereo not shown) [Example 48, 3-(Cyclopropyl-phenyl-methyl)-4-hydroxy-6-(4-morpholin-4-yl-butyl)-pyran-2-one] | < 10 | < 10 | < 10 | < 10 | 31.3 | 61.6 |  |  |  |  |  |  |  |  |
| O=c1oc(CCc2ccccn2)cc(O)c1C(c1ccccc1)C1CC1 (stereo not shown) [Example 49, 3-(Cyclopropyl-phenyl-methyl)-4-hydroxy-6-(2-pyridin-2-yl-ethyl)-pyran-2-one] | < 10 | 24.6 | 52.3 | 80 | 93.7 | 98.3 |  |  |  |  |  |  | 425 |  |
| Cc1nc(CCc2cc(O)c(C(c3ccccc3)C3CC3)c(=O)o2)cs1 (stereo not shown) [Example 50, 3-(Cyclopropyl-phenyl-methyl)-4-hydroxy-6-(2-(2-methyl-thiazol-4-yl)-ethyl)-pyran-2-one] | < 10 | 22.1 | 55.5 | 80.5 | 96 | 106 |  |  |  |  |  |  | 353 |  |
| O=c1oc(CCc2ccc3ccccc3n2)cc(O)c1C(c1ccccc1)C1CC1 (stereo not shown) [Example 51, 3-(Cyclopropyl-phenyl-methyl)-4-hydroxy-6-(2-quinolin-2-yl-ethyl)-pyran-2-one] | < 10 | < 10 | 23.4 | 50.7 | 70 | 83.7 |  |  |  |  |  |  |  |  |
| CCC(Cc1ccc(Cl)s1)c1cc(O)c(C(c2ccccc2)C2CC2)c(=O)o1 (stereo not shown) [Example 52, 6-(1-(5-Chloro-thiophen-2-ylmethyl)-propyl)-3-(cyclopropyl-phenyl-methyl)-4-hydroxy-pyran-2-one] | 66.6 | 86.2 | 106 | 112 | 116 | 113 |  |  |  |  |  |  | 43 |  |
| O=c1oc(CCCCl)cc(O)c1C(c1ccccc1)C1CC1 (stereo not shown) [Example 53, 6-(3-Chloro-propyl)3-(cyclopropyl-phenyl-methyl)-4-hydroxy-pyran-2-one] | 19.4 | 47.5 | 86 | 102 | 117 | 120 |  |  |  |  |  |  | 220 |  |
| CCC(Cc1c(C)noc1C)c1cc(O)c(C(c2ccccc2)C2CC2)c(=O)o1 (stereo not shown) [Example 54, 3-(Cyclopropyl-phenyl-methyl)-6(1-(3,5-dimethyl-isoxazol-4-ylmethyl)-propyl)-4-hydroxy-pyran-2-one] | 85 | 95.8 | 109 | 113 | 117 | 100 |  |  |  |  |  |  | 72 |  |
| CCC(Cc1csc(-c2ccc(Cl)cc2)n1)c1cc(O)c(C(c2ccccc2)C2CC2)c(=O)o1 (stereo not shown) [Example 55, 6-(1-(2-(4-Chloro-phenyl)-thiazol-4-ylmethyl)-propyl)-3-(cyclopropyl-phenyl-methyl)-4-hydroxy-pyran-2-one] | < 10 | 24.1 | 59.6 | 92.1 | 89.6 | 102 |  |  |  |  |  |  | 578 |  |
| CCC(CC1CCCO1)c1cc(O)c(C(c2ccccc2)C2CC2)c(=O)o1 (stereo not shown) [Example 56, 3-(Cyclopropyl-phenyl-methyl)-4-hydroxy-6-(1-(tetrahydro-furan-2-ylmethyl)-propyl)-pyran-2-one] | 92.6 | 97.7 | 106 | 117 | 119 | 109 |  |  |  |  |  |  | 37 |  |
| CCC(Cc1cccs1)c1cc(O)c(C(c2ccccc2)C2CC2)c(=O)o1 (stereo not shown) [Example 57, 3-(Cyclopropyi-phenyl-methyl)-4-hydroxy-6-(1-thiophen-2-ylmethyl-propyl)-pyran-2-one] | 76.7 | 89.4 | 103 | 108 | 114 | 116 |  |  |  |  |  |  | 63 |  |
| CCC(CC1CCOCC1)c1cc(O)c(C(c2ccccc2)C2CC2)c(=O)o1 (stereo not shown) [Example 58] | 74.5 | 91.1 | 107 | 108 | 115 | 110 |  |  |  |  |  |  | 48 |  |

From patent EP1203770A1 (priority 1992, dated 1994)
